Results published in patent US11083725B2 (priority 2014, dated 2021).

Tested on: NHBE cells
Experiment: Biolog metabolic array: substrate use by NHBE cells with or without CA09 infection
Type: cell-based, human
Conditions: for Substrate use, 590 nm absorbance normalized to zero hour, 1 hr: Biolog PMM2, 1 hr; for Substrate use, 590 nm absorbance normalized to zero hour, 5 hr: Biolog PMM2, 5 hr; for Substrate use, 590 nm absorbance normalized to zero hour, 7 hr: Biolog PMM2, 7 hr; for Substrate use, 590 nm absorbance normalized to zero hour, 0 hr: Biolog PMM2, 0 hr
[1] = Control (uninfected) NHBE cells
[2] = Virus (CA09, MOI 1) infected NHBE cells
[3] = Virus (CA09-infected, MOI 1) NHBE cells
[4] = Virus (CA09-infected NHBE cells, MOI 1)
[5] = Virus: CA09-infected NHBE cells, MOI 1, Biolog PMM2

Compound: O=C[C@H](O)[C@@H](O)[C@@H](O)[C@H](O)CO [D-Galactose]
- 590 nm absorbance normalized to zero hour (substrate use), 1 hr [1]: 0.95
- 590 nm absorbance normalized to zero hour (substrate use), 2 hr [1]: 1.46
- 590 nm absorbance normalized to zero hour (substrate use), 3 hr [1]: 1.73
- 590 nm absorbance normalized to zero hour (substrate use), 4 hr [1]: 1.56
- 590 nm absorbance normalized to zero hour (substrate use), 6 hr [1]: 1.78
- 590 nm absorbance normalized to zero hour (substrate use), 8 hr [1]: 2.22
- 590 nm absorbance normalized to zero hour (substrate use), 9 hr [1]: 2.53
- 590 nm absorbance normalized to zero hour (substrate use), 10 hr [1]: 2.67
- 590 nm absorbance normalized to zero hour (substrate use), 11 hr [1]: 2.53
- Substrate use, 590 nm absorbance normalized to zero hour, 1 hr [1]: 0.95
- Substrate use, 590 nm absorbance normalized to zero hour, 5 hr [1]: 1.88
- Substrate use, 590 nm absorbance normalized to zero hour, 7 hr [1]: 2.03
- Substrate use, 590 nm absorbance normalized to zero hour, 1 hr [2]: 0.91
- Substrate use, 590 nm absorbance normalized to zero hour, 5 hr [2]: 1.89
- Substrate use, 590 nm absorbance normalized to zero hour, 7 hr [2]: 2.16
- 590 nm absorbance normalized to zero hour (substrate use), 1 hr [3]: 0.91
- 590 nm absorbance normalized to zero hour (substrate use), 2 hr [3]: 1.21
- 590 nm absorbance normalized to zero hour (substrate use), 3 hr [3]: 1.47
- 590 nm absorbance normalized to zero hour (substrate use), 4 hr [3]: 1.60
- 590 nm absorbance normalized to zero hour (substrate use), 6 hr [3]: 2.03
- 590 nm absorbance normalized to zero hour (substrate use), 8 hr [3]: 2.29
- 590 nm absorbance normalized to zero hour (substrate use), 9 hr [3]: 2.54
- 590 nm absorbance normalized to zero hour (substrate use), 10 hr [3]: 2.63
- 590 nm absorbance normalized to zero hour (substrate use), 11 hr [3]: 2.86

Compound: O=P(O)(O)O[C@H]1O[C@H](CO)[C@@H](O)[C@H](O)[C@H]1O [D-Glucose-1-Phosphate]
- 590 nm absorbance normalized to zero hour (substrate use), 0 hr [1]: 1.00
- 590 nm absorbance normalized to zero hour (substrate use), 1 hr [1]: 1.01
- 590 nm absorbance normalized to zero hour (substrate use), 2 hr [1]: 1.31
- 590 nm absorbance normalized to zero hour (substrate use), 3 hr [1]: 1.24
- 590 nm absorbance normalized to zero hour (substrate use), 4 hr [1]: 1.16
- 590 nm absorbance normalized to zero hour (substrate use), 6 hr [1]: 0.33
- 590 nm absorbance normalized to zero hour (substrate use), 8 hr [1]: 1.03
- 590 nm absorbance normalized to zero hour (substrate use), 9 hr [1]: 1.09
- 590 nm absorbance normalized to zero hour (substrate use), 10 hr [1]: 1.06
- 590 nm absorbance normalized to zero hour (substrate use), 11 hr [1]: 0.93
- Substrate use, 590 nm absorbance normalized to zero hour, 0 hr [1]: 1.00
- Substrate use, 590 nm absorbance normalized to zero hour, 1 hr [1]: 1.01
- Substrate use, 590 nm absorbance normalized to zero hour, 5 hr [1]: 1.12
- Substrate use, 590 nm absorbance normalized to zero hour, 7 hr [1]: 1.10
- Substrate use, 590 nm absorbance normalized to zero hour, 0 hr [2]: 1.00
- Substrate use, 590 nm absorbance normalized to zero hour, 1 hr [2]: 1.74
- Substrate use, 590 nm absorbance normalized to zero hour, 5 hr [2]: 3.94
- Substrate use, 590 nm absorbance normalized to zero hour, 7 hr [2]: 4.56
- 590 nm absorbance normalized to zero hour (substrate use), 0 hr [3]: 1.00
- 590 nm absorbance normalized to zero hour (substrate use), 1 hr [3]: 1.74
- 590 nm absorbance normalized to zero hour (substrate use), 2 hr [3]: 2.39
- 590 nm absorbance normalized to zero hour (substrate use), 3 hr [3]: 2.86
- 590 nm absorbance normalized to zero hour (substrate use), 4 hr [3]: 3.20
- 590 nm absorbance normalized to zero hour (substrate use), 6 hr [3]: 4.34
- 590 nm absorbance normalized to zero hour (substrate use), 8 hr [3]: 4.91
- 590 nm absorbance normalized to zero hour (substrate use), 9 hr [3]: 5.77
- 590 nm absorbance normalized to zero hour (substrate use), 10 hr [3]: 5.49
- 590 nm absorbance normalized to zero hour (substrate use), 11 hr [3]: 6.50

Compound: CO[C@H]1O[C@H](CO)[C@@H](O)[C@H](O)[C@@H]1O [a-Methyl-D-Mannoside]
- 590 nm absorbance normalized to zero hour (substrate use), 0 hr [1]: 1.00
- 590 nm absorbance normalized to zero hour (substrate use), 1 hr [1]: 1.26
- 590 nm absorbance normalized to zero hour (substrate use), 2 hr [1]: 1.58
- 590 nm absorbance normalized to zero hour (substrate use), 3 hr [1]: 1.74
- 590 nm absorbance normalized to zero hour (substrate use), 4 hr [1]: 1.89
- 590 nm absorbance normalized to zero hour (substrate use), 6 hr [1]: 2.77
- 590 nm absorbance normalized to zero hour (substrate use), 8 hr [1]: 2.13
- 590 nm absorbance normalized to zero hour (substrate use), 9 hr [1]: 2.16
- 590 nm absorbance normalized to zero hour (substrate use), 10 hr [1]: 2.95
- 590 nm absorbance normalized to zero hour (substrate use), 11 hr [1]: 2.58
- Substrate use, 590 nm absorbance normalized to zero hour, 0 hr [1]: 1.00
- Substrate use, 590 nm absorbance normalized to zero hour, 1 hr [1]: 1.26
- Substrate use, 590 nm absorbance normalized to zero hour, 5 hr [1]: 2.33
- Substrate use, 590 nm absorbance normalized to zero hour, 7 hr [1]: 2.46
- 590 nm absorbance normalized to zero hour (substrate use), 0 hr [4]: 1.00
- 590 nm absorbance normalized to zero hour (substrate use), 1 hr [4]: 0.38
- 590 nm absorbance normalized to zero hour (substrate use), 2 hr [4]: 0.54
- 590 nm absorbance normalized to zero hour (substrate use), 3 hr [4]: 0.64
- 590 nm absorbance normalized to zero hour (substrate use), 4 hr [4]: 0.69
- 590 nm absorbance normalized to zero hour (substrate use), 5 hr [4]: 0.83
- 590 nm absorbance normalized to zero hour (substrate use), 6 hr [4]: 0.89
- 590 nm absorbance normalized to zero hour (substrate use), 7 hr [4]: 0.93
- 590 nm absorbance normalized to zero hour (substrate use), 8 hr [4]: 0.99
- 590 nm absorbance normalized to zero hour (substrate use), 9 hr [4]: 1.10
- 590 nm absorbance normalized to zero hour (substrate use), 10 hr [4]: 1.14
- 590 nm absorbance normalized to zero hour (substrate use), 11 hr [4]: 1.24
- 590 nm absorbance normalized to zero hour (substrate use), 0 hr [5]: 1.00
- 590 nm absorbance normalized to zero hour (substrate use), 1 hr [5]: 0.38
- 590 nm absorbance normalized to zero hour (substrate use), 2 hr [5]: 0.54
- 590 nm absorbance normalized to zero hour (substrate use), 3 hr [5]: 0.64
- 590 nm absorbance normalized to zero hour (substrate use), 4 hr [5]: 0.69
- 590 nm absorbance normalized to zero hour (substrate use), 5 hr [5]: 0.83
- 590 nm absorbance normalized to zero hour (substrate use), 6 hr [5]: 0.89
- 590 nm absorbance normalized to zero hour (substrate use), 7 hr [5]: 0.93
- 590 nm absorbance normalized to zero hour (substrate use), 8 hr [5]: 0.99
- 590 nm absorbance normalized to zero hour (substrate use), 9 hr [5]: 1.10
- 590 nm absorbance normalized to zero hour (substrate use), 10 hr [5]: 1.14
- 590 nm absorbance normalized to zero hour (substrate use), 11 hr [5]: 1.24
